Where “and” joins values, the source holds several entries; their conditions need not be identical. Equal entries are not always repeated. Inconclusive results and toxic doses are left out.
System: P388 leukemia ip, CD2F1 mice, survival T/C
Assay: NCI In Vivo Anticancer Drug Screen. Data for tumor model P388 Leukemia (intraperitoneal) in CD2F1 (CDF1) mice
Settings: endpoint: median survival time, higher = longer survival
How it was run: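 Mice carrying the transplanted tumor received test compound or vehicle. Survival was recorded in each group, and the value is the treated-group measurement divided by that of the vehicle-treated control group.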

[1] = dose: 50.0 mg/kg/injection, schedule: Q01DX005 (ip), vehicle: Klucel (hydroxypropylcellulose) (HPC)
[2] = dose: 100.0 mg/kg/injection, schedule: Q01DX005 (ip), vehicle: Klucel (hydroxypropylcellulose) (HPC)
[3] = dose: 200.0 mg/kg/injection, schedule: Q01DX005 (ip), vehicle: Klucel (hydroxypropylcellulose) (HPC)
[4] = dose: 50.0 mg/kg/injection, schedule: Q01DX005 (ip), vehicle: saline with Tween-80
[5] = dose: 100.0 mg/kg/injection, schedule: Q01DX005 (ip), vehicle: saline with Tween-80
[6] = dose: 200.0 mg/kg/injection, schedule: Q01DX005 (ip), vehicle: saline with Tween-80
[7] = dose: 50.0 mg/kg/injection, schedule: Q01DX009 (ip), vehicle: saline with Tween-80
[8] = dose: 100.0 mg/kg/injection, schedule: Q01DX009 (ip), vehicle: saline with Tween-80
[9] = dose: 200.0 mg/kg/injection, schedule: Q01DX009 (ip), vehicle: saline with Tween-80

CN1C(c2ccccc2)C2CSCC(C1c1ccccc1)C21NC(=O)NC1=O (centres undefined)
T/C (dose: 100.0 mg/kg/injection, schedule: Q01DX001 (ip), vehicle: saline with Tween-80): 104 % of control | T/C (dose: 200.0 mg/kg/injection, schedule: Q01DX001 (ip), vehicle: saline with Tween-80): 100 % of control | T/C (dose: 400.0 mg/kg/injection, schedule: Q01DX001 (ip), vehicle: saline with Tween-80): 97 % of control

CCCCOc1ccc(C(C)c2cc3c(cc2OC)OCO3)cc1 (centres undefined)
T/C (dose: 25.0 mg/kg/injection, schedule: Q01DX005 (ip), vehicle: Klucel (hydroxypropylcellulose) (HPC)): 107 % of control | T/C [1]: 95 % of control | T/C [2]: 101 % of control | T/C [3]: 98 % of control

Clc1c2ccccc2cc2cccnc12
T/C (dose: 50.0 mg/kg/injection, schedule: Q01DX009 (ip), vehicle: saline): 101 % of control | T/C (dose: 100.0 mg/kg/injection, schedule: Q01DX009 (ip), vehicle: saline): 100 % of control | T/C (dose: 200.0 mg/kg/injection, schedule: Q01DX009 (ip), vehicle: saline): 102 % of control and 86 % of control

O=C1c2c(c(Cl)c3ccccc3c2O)C(=O)C2C3C=CC(C3)C12 (centres undefined)
T/C [4]: 96 % of control | T/C [5]: 89 % of control | T/C [6]: 89 % of control

Nn1nnc2cc3c(cc21)nnn3N
T/C (dose: 100.0 mg/kg/injection, schedule: Q04DX002 (ip), vehicle: saline with Tween-80): 109 % of control | T/C (dose: 200.0 mg/kg/injection, schedule: Q04DX002 (ip), vehicle: saline with Tween-80): 98 % of control | T/C (dose: 400.0 mg/kg/injection, schedule: Q04DX002 (ip), vehicle: saline with Tween-80): 95 % of control

CCOC(=O)C1=C(N)OC(c2ccccc2)=C(C#N)C1c1ccccc1Cl (centres undefined)
T/C [1]: 101 % of control | T/C [2]: 113 % of control | T/C [3]: 97 % of control

CCCCCCC(=O)/C=C/c1cccc(OCc2ccc(Cl)cc2)c1
T/C [7]: 101 % of control | T/C [8]: 93 % of control | T/C [9]: 101 % of control

COc1cccc2c1C(=O)c1c(O)c3c(c(O)c1C2=O)C[C@@](O)(c1csc(N)n1)C[C@@H]3OC1CC(N)C(O)C(C)O1 (some centres undefined)
T/C (dose: 1.56 mg/kg/injection, schedule: Q01DX009 (ip), vehicle: water): 150 % of control | T/C (dose: 6.25 mg/kg/injection, schedule: Q01DX009 (ip), vehicle: water): 157 % of control and 160 % of control | T/C (dose: 6.25 mg/kg/injection, schedule: Q04DX003 (ip), vehicle: water): 96 % of control | T/C (dose: 12.5 mg/kg/injection, schedule: Q01DX009 (ip), vehicle: water): 155 % of control and 163 % of control | T/C (dose: 12.5 mg/kg/injection, schedule: Q04DX003 (ip), vehicle: water): 105 % of control and 109 % of control | T/C (dose: 25.0 mg/kg/injection, schedule: Q01DX009 (ip), vehicle: water): 178 % of control | T/C (dose: 25.0 mg/kg/injection, schedule: Q04DX003 (ip), vehicle: water): 118 % of control | T/C (dose: 100.0 mg/kg/injection, schedule: Q04DX003 (ip), vehicle: water): 123 % of control

Cc1nc(SCC(=O)O)n[nH]1
T/C [7]: 103 % of control | T/C [8]: 103 % of control | T/C [9]: 101 % of control

CC[C@]1(O)C[C@H]2CN(CCc3c([nH]c4ccccc34)[C@@](C(=O)OC)(c3cc4c(cc3OC)N(C)[C@H]3[C@@](O)(C(=O)OC)[C@H](OC(C)=O)[C@]5(CC)C=CCN6CC[C@]43[C@@H]65)C2)C1
T/C (dose: 0.03 mg/kg/injection, schedule: Q04DX003 (ip), vehicle: water): 100 % of control | T/C (dose: 0.13 mg/kg/injection, schedule: Q01DX005 (ip), vehicle: saline): 172 % of control | T/C (dose: 0.13 mg/kg/injection, schedule: Q01DX009 (ip), vehicle: saline): 162 % of control | T/C (dose: 0.16 mg/kg/injection, schedule: Q01DX009 (ip), vehicle: saline): 160 % of control | T/C (dose: 0.25 mg/kg/injection, schedule: Q01DX005 (ip), vehicle: saline): 202 % of control | T/C (dose: 0.38 mg/kg/injection, schedule: Q04DX003 (ip), vehicle: saline): 162 % of control | T/C (dose: 0.4 mg/kg/injection, schedule: Q04DX003 (ip), vehicle: water): 160 % of control | T/C (dose: 0.45 mg/kg/injection, schedule: Q01DX009 (ip), vehicle: saline): 168 % of control | T/C (dose: 0.5 mg/kg/injection, schedule: Q01DX001 (ip), vehicle: saline): 150 % of control | T/C (dose: 0.5 mg/kg/injection, schedule: Q01DX005 (ip), vehicle: saline): 163 % of control and 177 % of control | T/C (dose: 0.5 mg/kg/injection, schedule: Q04DX003 (ip), vehicle: saline): 169 % of control | T/C (dose: 0.52 mg/kg/injection, schedule: Q04DX002 (ip), vehicle: saline): 157 % of control | T/C (dose: 0.63 mg/kg/injection, schedule: Q04DX003 (ip), vehicle: saline): 157 % of control and 248 % of control | T/C (dose: 0.64 mg/kg/injection, schedule: Q04DX002 (ip), vehicle: saline): 179 % of control | T/C (dose: 0.65 mg/kg/injection, schedule: Q04DX003 (ip), vehicle: saline): 173 % of control | T/C (dose: 0.67 mg/kg/injection, schedule: Q04DX003 (ip), vehicle: saline): 185 % of control | T/C (dose: 0.75 mg/kg/injection, schedule: Q01DX009 (ip), vehicle: saline): 91 % of control | T/C (dose: 0.75 mg/kg/injection, schedule: Q04DX003 (ip), vehicle: saline): 198 % of control | T/C (dose: 0.8 mg/kg/injection, schedule: Q01DX009 (ip), vehicle: saline): 90 % of control | T/C (dose: 0.8 mg/kg/injection, schedule: Q04DX003 (ip), vehicle: water): 173 % of control and 185 % of control | T/C (dose: 0.86 mg/kg/injection, schedule: Q04DX002 (ip), vehicle: saline): 196 % of control | T/C (dose: 1.0 mg/kg/injection, schedule: Q01DX001 (ip), vehicle: Klucel (hydroxypropylcellulose) (HPC)): 163 % of control | T/C (dose: 1.0 mg/kg/injection, schedule: Q01DX001 (ip), vehicle: saline): 162 % of control | T/C (dose: 1.0 mg/kg/injection, schedule: Q04DX003 (ip), vehicle: water): 150 % of control | T/C (dose: 1.08 mg/kg/injection, schedule: Q04DX002 (ip), vehicle: saline): 199 % of control | T/C (dose: 1.08 mg/kg/injection, schedule: Q04DX003 (ip), vehicle: saline): 186 % of control and 201 % of control | T/C (dose: 1.2 mg/kg/injection, schedule: Q04DX003 (ip), vehicle: saline): 189 % of control | T/C (dose: 1.44 mg/kg/injection, schedule: Q04DX002 (ip), vehicle: saline): 197 % of control and 198 % of control | T/C (dose: 1.44 mg/kg/injection, schedule: Q04DX003 (ip), vehicle: saline): 97 % of control | T/C (dose: 1.6 mg/kg/injection, schedule: Q04DX003 (ip), vehicle: water): 228 % of control and 229 % of control and 234 % of control | T/C (dose: 1.8 mg/kg/injection, schedule: Q04DX002 (ip), vehicle: saline): 218 % of control | T/C (dose: 1.8 mg/kg/injection, schedule: Q04DX003 (ip), vehicle: saline): 213 % of control and 220 % of control | T/C (dose: 2.0 mg/kg/injection, schedule: Q01DX001 (ip), vehicle: clinical formulation): 150 % of control | T/C (dose: 2.0 mg/kg/injection, schedule: Q04DX003 (oral), vehicle: water): 110 % of control | T/C (dose: 2.4 mg/kg/injection, schedule: Q04DX002 (ip), vehicle: saline): 376 % of control | T/C (dose: 3.2 mg/kg/injection, schedule: Q04DX003 (ip), vehicle: water): 100 % of control | T/C (dose: 3.33 mg/kg/injection, schedule: Q04DX003 (ip), vehicle: saline): 240 % of control | T/C (dose: 4.0 mg/kg/injection, schedule: Q01DX001 (ip), vehicle: Klucel (hydroxypropylcellulose) (HPC)): 216 % of control | T/C (dose: 4.0 mg/kg/injection, schedule: Q01DX001 (ip), vehicle: clinical formulation): 171 % of control and 177 % of control | T/C (dose: 4.0 mg/kg/injection, schedule: Q01DX001 (ip), vehicle: saline): 162 % of control and 200 % of control | T/C (dose: 8.0 mg/kg/injection, schedule: Q01DX001 (ip), vehicle: Klucel (hydroxypropylcellulose) (HPC)): 177 % of control | T/C (dose: 8.0 mg/kg/injection, schedule: Q01DX001 (ip), vehicle: clinical formulation): 190 % of control | T/C (dose: 125.0 micrograms/kg/injection, schedule: Q01DX009 (ip), vehicle: water): 172 % of control | T/C (dose: 250.0 micrograms/kg/injection, schedule: Q01DX009 (ip), vehicle: water): 164 % of control | T/C (dose: 500.0 micrograms/kg/injection, schedule: Q01DX009 (ip), vehicle: water): 92 % of control

COc1ccc2[nH]c3c(c2c1)-c1ncncc1CC3
T/C [4]: 100 % of control | T/C [5]: 97 % of control | T/C [6]: 106 % of control

OCC1=CCN2CC[C@@H](O)[C@@H]12
T/C (dose: 50.0 mg/kg/injection, schedule: Q01DX005 (ip), vehicle: saline): 93 % of control | T/C (dose: 100.0 mg/kg/injection, schedule: Q01DX005 (ip), vehicle: saline): 107 % of control | T/C (dose: 200.0 mg/kg/injection, schedule: Q01DX005 (ip), vehicle: saline): 93 % of control

Reference: PubChem BioAssay AID330 (DTP/NCI, 2004)
